Test results from article PMC11714206, “Massively Parallel Screening of Toll/Interleukin‐1 Receptor (TIR)‐Derived Peptides Reveals Multiple Toll‐Like Receptors (TLRs)‐Targeting Immunomodulatory Peptides” (Advanced Science, 2024).

Target: T1, MyD88^TIR (Homo sapiens, UniProt Q99836)
T1 construct: MyD88 (residues 148–296); 6xHis; made in house; host or cells: E. coli BL21 (DE3)
Test: T‐Surf phage library (P8 and P3) selection against MyD88^TIR, four rounds, NGS read counts
Assay type: binding
Settings: for P8_MyD88 Rank (after) / P8_MyD88 Rank (before): P8 library; for P3_MyD88 Rank (after) / P3_MyD88 Rank (before): P3 library; for Population: 4th round of selection against MyD88 TIR, share of NGS reads
Outline: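 Four panning rounds on TIR domain adsorbed at 5 µg mL^−1; binding 1 h at 20–22 °C, elution with 100 mM HCl. Output: NGS read counts of round‐4 pools versus naïve library.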

[1] = 4R selection against MyD88, rank after grouping
[2] = 4R selection against MyD88, rank before grouping
[3] = P8_MyD88: rank by NGS read count after grouping
[4] = P8_MyD88: rank by NGS read count before grouping
[5] = selection against MyD88, rank after grouping
[6] = selection against MyD88, rank before grouping
[7] = selection against MyD88 TIR, rank by count after grouping
[8] = selection against MyD88 TIR, rank by count before grouping
[9] = selection against MyD88, rank by count after grouping
[10] = selection against MyD88, rank by count before grouping
[11] = P3_MyD88: rank by count after grouping
[12] = P3_MyD88: rank by count before grouping
[13] = P8_MyD88: rank by count after grouping
[14] = P8_MyD88: rank by count before grouping
[15] = P8_MyD88 pool: P8 T-Surf phage library

T1 sequence (Q99836 148-296): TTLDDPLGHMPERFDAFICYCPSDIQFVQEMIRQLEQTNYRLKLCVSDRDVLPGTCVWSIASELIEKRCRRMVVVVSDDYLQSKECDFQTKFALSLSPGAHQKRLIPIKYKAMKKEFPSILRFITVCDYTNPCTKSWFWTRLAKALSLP

Sequence: YLRADEFWTLEKLLTA
- P8_MyD88 Rank (after) [1]: 609
- P8_MyD88 Rank (before) [2]: 2071

Sequence: YLRADELLKILYANETM
- Rank (after) [3]: 870
- Rank (before) [4]: 2072

Sequence: YLRLEVIWFWENRRYA
- P8_MyD88 Rank (after) [5]: 491
- P8_MyD88 Rank (before) [6]: 2075

Sequence: YLRRSVFQTMLARRTE
- Rank (after) [3]: 899
- Rank (before) [4]: 2077

Sequence: YLRWGYPWFGDRLRFA
- P3_MyD88 Rank (after) [5]: 539
- P3_MyD88 Rank (before) [6]: 1562

Sequence: YNFISHLYDALRLNKIAPF
- P3_MyD88 Rank (after) [1]: 634
- P3_MyD88 Rank (before) [2]: 1728

Sequence: YNFISHLYDALRLNKIETF
- P3_MyD88 Rank (after) [7]: 271
- P3_MyD88 Rank (before) [8]: 896

Sequence: YNFISQLYDALQRNRI
- P3_MyD88 Rank (after) [9]: 710
- P3_MyD88 Rank (before) [10]: 1743

Sequence: YNLAHYLYVSMRASGI
- P8_MyD88 Rank (after) [9]: 715
- P8_MyD88 Rank (before) [10]: 2132

Sequence: YNLAQYLHVSLMARGI
- P8_MyD88 Rank (after) [1]: 664
- P8_MyD88 Rank (before) [2]: 2134

Sequence: YNLISHLYDAMHRNRI
- P3_MyD88 Rank (after) [5]: 549
- P3_MyD88 Rank (before) [6]: 1746

Sequence: YPQDLDWFYERLVSQF
- P8_MyD88 Rank (after) [9]: 719
- P8_MyD88 Rank (before) [10]: 2097

Sequence: YPQDLEWLYERLVSPV
- Rank (after) [3]: 945
- Rank (before) [4]: 2099

Sequence: YPQDLQWLYERLGSLI
- Rank (after) [3]: 892
- Rank (before) [4]: 2104

Sequence: YPQELDWCYERLVSLL
- P8_MyD88 Rank (after) [9]: 762
- P8_MyD88 Rank (before) [10]: 2102

Sequence: YPQELVLFYELLGSLV
- P8_MyD88 Rank (after) [9]: 699
- P8_MyD88 Rank (before) [10]: 2101

Sequence: YQLVFVHFWMFDGRTA
- P8_MyD88 Rank (after) [5]: 518
- P8_MyD88 Rank (before) [6]: 2106

Sequence: YQWRNALSAAANLCGW
- P3_MyD88 Rank (after) [5]: 569
- P3_MyD88 Rank (before) [6]: 1617

Sequence: YRKWGYLRIWDRWRFA
- Rank (after) [11]: 411
- Rank (before) [12]: 1613

Sequence: YSFLSHLAAAFELHGI
- P8_MyD88 Rank (after) [7]: 285
- P8_MyD88 Rank (before) [8]: 543

Sequence: YSFTGQLHLYLIHRGV
- Rank (after) [11]: 462
- Rank (before) [12]: 1433

Sequence: YSFTGQLHRYMVQRGV
- P3_MyD88 Rank (after) [1]: 649
- P3_MyD88 Rank (before) [2]: 1434

Sequence: YSQHDVLWVKNFLSHI
- Rank (after) [3]: 1025
- Rank (before) [4]: 2122

Sequence: YTALANSGCHTFRDND
- Rank (after) [11]: 397
- Rank (before) [12]: 1635

Sequence: YTALANSGFHTFHDND
- P3_MyD88 Rank (after) [1]: 613
- P3_MyD88 Rank (before) [2]: 1634

Sequence: YTALINSGFHTFRDNH
- P3_MyD88 Rank (after) [7]: 273
- P3_MyD88 Rank (before) [8]: 1637

Sequence: YTALNHSGFHTFRDND
- P3_MyD88 Rank (after) [7]: 253
- P3_MyD88 Rank (before) [8]: 1702

Sequence: YTALNNMGFHTFRGND
- P3_MyD88 Rank (after) [9]: 705
- P3_MyD88 Rank (before) [10]: 1627

Sequence: YTALNNSGFNTFRDND
- Rank (after) [11]: 188
- Rank (before) [12]: 1704

Sequence: YTALPNSGFHTFRDNN
- P3_MyD88 Rank (after) [7]: 257
- P3_MyD88 Rank (before) [8]: 1636

Sequence: YTALPNSGFHTIRDNE
- P3_MyD88 Rank (after) [5]: 552
- P3_MyD88 Rank (before) [6]: 1712

Sequence: YTALSYRGFHDFRGNE
- P3_MyD88 Rank (after) [5]: 504
- P3_MyD88 Rank (before) [6]: 1638

Sequence: YTALTAAANLSGW
- Population (P3_MyD88 pool: P3 T-Surf phage library): 0.00378%

Sequence: YTALTIAAFIPFVIM
- P3_MyD88 Rank (after) [5]: 574
- P3_MyD88 Rank (before) [6]: 1647

Sequence: YTALTNCGFHTFRDNV
- P3_MyD88 Rank (after) [7]: 208
- P3_MyD88 Rank (before) [8]: 1649

Sequence: YTALTNICFHTFRDND
- Rank (after) [11]: 178
- Rank (before) [12]: 1654

Sequence: YTALTNIGIHTFRDND
- P3_MyD88 Rank (after) [7]: 223
- P3_MyD88 Rank (before) [8]: 1655

Sequence: YTALTNMSFHTFRDNY
- P3_MyD88 Rank (after) [9]: 677
- P3_MyD88 Rank (before) [10]: 1653

Sequence: YTALTNRAFIPFVIM
- P3_MyD88 Rank (after) [1]: 590
- P3_MyD88 Rank (before) [2]: 1658

Sequence: YTALTNRGFHTFLDND
- Rank (after) [11]: 479
- Rank (before) [12]: 1631

Sequence: YTALTNRGFHTFRDHH
- P3_MyD88 Rank (after) [9]: 687
- P3_MyD88 Rank (before) [10]: 1651

Sequence: YTALTNRGFLTFRDNA
- Rank (after) [11]: 180
- Rank (before) [12]: 1650

Sequence: YTALTNSGCHTFRVND
- P3_MyD88 Rank (after) [9]: 689
- P3_MyD88 Rank (before) [10]: 1657

Sequence: YTALTNSGCPTFCVIA
- Rank (after) [11]: 444
- Rank (before) [12]: 1694

Sequence: YTALTNSGFHIFSANG
- P3_MyD88 Rank (after) [5]: 497
- P3_MyD88 Rank (before) [6]: 1664

Sequence: YTALTNSGFHTFLDNY
- Rank (after) [11]: 119
- Rank (before) [12]: 1665

Sequence: YTALTNSGFHTFRDHE
- P3_MyD88 Rank (after) [7]: 227
- P3_MyD88 Rank (before) [8]: 1676

Sequence: YTALTNSGFHTFRVNV
- P3_MyD88 Rank (after) [1]: 659
- P3_MyD88 Rank (before) [2]: 1668

Sequence: YTALTNSGFLSFRDTD
- Rank (after) [11]: 428
- Rank (before) [12]: 1661

Sequence: YTALTNSGFPTFRDHD
- Rank (after) [11]: 171
- Rank (before) [12]: 1662

Sequence: YTALTNSGFSEENLF
- P3_MyD88 Rank (after) [1]: 668
- P3_MyD88 Rank (before) [2]: 1683

Sequence: YTALTNSGIHTLRDND
- Rank (after) [11]: 174
- Rank (before) [12]: 1691

Sequence: YTALTNSGVHTFLDND
- P3_MyD88 Rank (after) [7]: 206
- P3_MyD88 Rank (before) [8]: 1688

Sequence: YTALTNSRLHNFRDND
- P3_MyD88 Rank (after) [9]: 696
- P3_MyD88 Rank (before) [10]: 1707

Sequence: YTALTNSSFHTFLDND
- P3_MyD88 Rank (after) [7]: 219
- P3_MyD88 Rank (before) [8]: 1696

Sequence: YTALTNSSFHTFRDNH
- P3_MyD88 Rank (after) [5]: 514
- P3_MyD88 Rank (before) [6]: 1697

Sequence: YTALTYSGFHTFRDNV
- P3_MyD88 Rank (after) [7]: 276
- P3_MyD88 Rank (before) [8]: 1642

Sequence: YTALTYSGFHTFRGND
- P3_MyD88 Rank (after) [1]: 645
- P3_MyD88 Rank (before) [2]: 1641

Sequence: YTAMTNSGFHTFRGND
- Rank (after) [11]: 429
- Rank (before) [12]: 1711

Sequence: YTARTNSGFHTFLDND
- P3_MyD88 Rank (after) [7]: 225
- P3_MyD88 Rank (before) [8]: 1708

Sequence: YTELTSSGFHTFRDND
- P3_MyD88 Rank (after) [7]: 198
- P3_MyD88 Rank (before) [8]: 1713

Sequence: YTSLTNRGFLIFRDND
- P3_MyD88 Rank (after) [1]: 596
- P3_MyD88 Rank (before) [2]: 1624

Sequence: YVDSPWALDELVKILQ
- P8_MyD88 Rank (after) [7]: 207
- P8_MyD88 Rank (before) [8]: 300

Sequence: YYDSRWALDELLKIL
- P8_MyD88 Rank (after) [5]: 484
- P8_MyD88 Rank (before) [6]: 1678

Sequence: YYDSRWALDELLKILDAKETM
- Rank (after) [13]: 470
- Rank (before) [14]: 1677

Sequence: YYDSRWALDELLKILYANETM
- Rank (after) [13]: 171
- Rank (before) [14]: 192
- Population [15]: 0.00617%

Sequence: YYDSRWALDELLQILHARELF
- P8_MyD88 Rank (after) [7]: 232
- P8_MyD88 Rank (before) [8]: 437

Sequence: YYDSRWALDELWLILEQR
- P8_MyD88 Rank (after) [9]: 749
- P8_MyD88 Rank (before) [10]: 1673

Sequence: YYDSRWALNELLEIL
- Rank (after) [3]: 903
- Rank (before) [4]: 1682

Sequence: YYFTDWDSEAEIIQKM
- Rank (after) [13]: 112
- Rank (before) [14]: 118
- Population [15]: 0.02%

Sequence: YYFTIGIAKRKLSRK
- P8_MyD88 Rank (after) [9]: 692
- P8_MyD88 Rank (before) [10]: 1687

Sequence: YYLDHSHPRKQNGEFG
- P3_MyD88 Rank (after) [5]: 556
- P3_MyD88 Rank (before) [6]: 1436

Sequence: YYLDPSHLRKHSGEIG
- P3_MyD88 Rank (after) [5]: 558
- P3_MyD88 Rank (before) [6]: 1464

Sequence: YYLDPSHLRKQRGEVD
- Rank (after) [11]: 418
- Rank (before) [12]: 1439

Sequence: YYLDPSHLRKQSGESE
- P3_MyD88 Rank (after) [7]: 255
- P3_MyD88 Rank (before) [8]: 1460

Sequence: YYLDPSHLRKQSGESERL
- P3_MyD88 Rank (after) [9]: 728
- P3_MyD88 Rank (before) [10]: 1459
